Patent US5079257A, “Indoloquinone compounds” (priority 1986, dated 1992)
≈ marks a conversion by molar mass, not a printed value. Where two headings read alike, the source gives them in different places.

Assays:
IgR37 cells melanoma = assay: In vitro panel of human tumour lines (TNO): IgR-37; assay type: cell-based; details: about 72 hours; also: key: -: no inhibition of cell growth; +: total cell-kill
Procedure, shortened: (§1)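 Cells (5×10^4/ml, Dulbecco's medium + 10% FCS) grafted 48 h, then continuously exposed to compound (Hanks'/ethanol, final ethanol <1%) for about 72 h at 37°C, 10% CO2. Crystal violet fixation/staining; inhibiting concentration estimated qualitatively over increasing doses.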

P 388 tumour cells = assay: In vivo P388 experiments (Brussels); parameters: species or system mice; details: for MAX T/C: days 1 to 5
Description: These experiments were carried out at the Institute Jules Bordet, Brussels, on CDF, female mice. The mice were inoculated intraperitoneally (IP) with 1×10^6 P 388 tumour cells. After 24 hours, the compounds were administrated as suspensions in "Tween-80" or using saline as vehicle. Six mice were used at each dose of the compound, given on days 1 to 5 and eighteen control mice were injected with saline.

[1] = Half-wave reduction potentials / polarography (University of Utrecht); assay type: physicochemical
Procedure, shortened: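 Polarographic half-wave potentials (E1/2) measured; only the first, quinone, reduction potential is reported.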

[2] = test system: A 204 cells; rhabdomyosarcoma; assay: In vitro panel of human tumour lines (TNO): A 204; assay type: cell-based; details: about 72 hours; also: key: -: no inhibition of cell growth; +: total cell-kill
Procedure, shortened: as §1

L1210 cells = assay: L1210 activity in clonogenic assay (TNO Rijswijk); assay type: cell-based; details: Mus musculus, L1210, 192 h, read-out: ID-50 L1210, clonogenic assay
Description: The indoloquinones II (formula II) have been tested in respect of their cytotoxic activity against L1210 cells and R-1 cells (Rhabdomyosarcoma Cells) in a bioliquid assay at the department of oncology of the Free University of Amsterdam (Table I). In addition to this seven compounds (E.O. 1, E.O. 2, E.O. 4, E.O. 7, E.O. 9, E.O. 16 and E.O. 17) have been tested on L1210 activity in a clonogenic assay at TNO, Rijswijk. Further, the lowest active doses of the compounds E.O. 1, E.O. 2, E.O. 4 and E.O. 9 have been determined at TNO Rijswijk, according to the method described by Lamberts et al. [Oncology, 40, 301 (1983)]. (Table II). Eight indoloquinones (E.O. 1, E.O. 2, E.O. 4, E.O. 4A, E.O. 8, E.O. 9, E.O. 33 and E.O. 35) have been tested in a panel of five human tumour lines (TNO Rijswijk; Table III). From the latter group three indoloquinones (E.O. 1, E.O. 4 and E.O. 9) have been selected for a cytotoxicity study, involving five slowly growing human tumour lines (University of Freiburg; Table IV).
The L1210 clonogenic assay used was an improved variant of the method described earlier by H. MARTIN et al. [Cancer Chemother., Rep., 51 451 (1967)] and L. M. van Putten et al. [Cancer Treat. Rep., 60, 373 (1976)] for the growth into colonies of L1210 cells in a soft agar medium. From a suspension culture ~100 L1210 Cells (0.1 ml) were plated into […] culture dishes (Falcon), containing 1 ml of soft agar growth medium and the compound to be tested in appropriate concentrations. The soft agar growth medium consisted of Dulbecco medium supplemented with 15.8% horse serum, 60 μmol 2-mercapto-ethanol, 20 mg/ml L-asparagine and 0.3% bacto agar (Difco).
The culture dishes were incubated at 37° C. in an atmosphere of 1% CO2 in humidified air for 8 days. After this period of continuous drug exposure, colonies were counted and dose-effect curves were made.

MCF7 breast cancer cells = assay: In vitro panel of human tumour lines (TNO): MCF-7; assay type: cell-based; details: about 72 hours; also: key: -: no inhibition of cell growth; +: total cell-kill
Procedure, shortened: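 Cells in Dulbecco's medium with 10% foetal calf serum were seeded 48 h, then exposed continuously to increasing compound concentrations (final ethanol <1%) for about 72 h at 37° in 10% CO2. Crystal violet staining after fixation; inhibiting concentration estimated qualitatively.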

lung-NSCLC tumour line = assay: Colony inhibition in vitro, continuous drug exposure (Freiburg); assay type: cell-based, human; details: for activity at 1 µg/mL: 1.0 μg/ml
Description: Three indoloquinones were tested at the University of Freiburg with respect to their in vitro inhibition of colony formation of the following five human tumour cell lines: lung-NSCLC, breast, renal and two colon lines.

in vivo = assay: in vivo; parameters: species or system mice; details: mouse, IP, single dose, suspension in carboxymethyl cellulose (2%)
Description: The acute toxicity experiments were carried out with male C5 Black/Rij X CBA/Rij Fl hybrid mice at TNO, Rijswijk. The drugs were administrated IP as suspensions in carboxymethyl cellulose (2%) as a single dose at the first day.

L1210 = assay: In vivo L1210 experiments (TNO Rijswijk); parameters: species or system mice
Description: The in vivo L1210 experiments were carried out in male Balb/c X DBA.2 Fl hybrid mice at TNO, Rijswijk.
In these experiments also, the drugs were administered IP as suspensions in carboxymethyl cellulose […] as a single dose at the first day.

[3] = 8 days continuous exposure, TNO Rijswijk
[4] = Homo sapiens, 0.01 μg/ml, read-out: colony formation treated/control (T/C), Lung
[5] = Homo sapiens, 0.1 μg/ml, read-out: colony formation treated/control (T/C), Lung
[6] = Homo sapiens, read-out: colony formation treated/control (T/C), Lung

COC1=CC(=O)c2c(c(COC(C)=O)c(/C=C/COC(C)=O)n2C)C1=O [E.O. 1, 3-Acetoxymethyl-5-methoxy-1-methyl-2-[1H-indole-4,7-dione]prop-β-en-α-yl acetate]
in vitro activity score, IgR-37 (IgR37 cells melanoma; 0.01 μg/ml): - | in vitro activity score, IgR-37 (IgR37 cells melanoma; 0.1 μg/ml): - | in vitro activity score, IgR-37 (IgR37 cells melanoma; 10 μg/ml): + | MAX T/C (P 388 tumour cells; 75 mg/kg): 105% | direct current polarogram ([1]; DC-polarography): two or more reduction waves | half-wave potential E1.2, wave I ([1]; pH = 8 vs Ag/AgCl): -367 mV | half-wave potential E1.2, wave III ([1]; pH = 8 vs Ag/AgCl): -435 mV | half-wave potential E1.2, wave IV ([1]; pH = 8 vs Ag/AgCl): -775 mV | in vitro activity score, A 204 ([2]; 0.01 μg/ml): - | in vitro activity score, A 204 ([2]; 0.1 μg/ml): - | in vitro activity score, A 204 ([2]; 10 μg/ml): + | IC50 (L1210 cells; [3]): 2.5 µg/mL | in vitro activity score, MCF-7 (MCF7 breast cancer cells; 0.01 μg/ml): - | in vitro activity score, MCF-7 (MCF7 breast cancer cells; 0.1 μg/ml): - | in vitro activity score, MCF-7 (MCF7 breast cancer cells; 1.0 μg/ml): - | in vitro activity score, MCF-7 (MCF7 breast cancer cells; 10 μg/ml): + | activity at 0.01 µg/mL (lung-NSCLC tumour line; [4]): 48% | activity at 0.1 µg/mL (lung-NSCLC tumour line; [5]): 4% | activity at 1 µg/mL (lung-NSCLC tumour line; [6]): 0% | LD50 (in vivo): 10 to 30 mg/kg

COC(=O)OC/C=C/c1c(COC(=O)OC)c2c(n1C)C(=O)C=C(OC)C2=O [E.O. 2, Methyl 5-methoxy-3-methoxycarbonyloxymethyl-1-methyl-2-[1H-indole-4,7 dione]prop-β-en-α-yl carbonate]
in vitro activity score, IgR-37 (IgR37 cells melanoma; 0.01 μg/ml): - | in vitro activity score, IgR-37 (IgR37 cells melanoma; 0.1 μg/ml): - | in vitro activity score, IgR-37 (IgR37 cells melanoma; 1.0 μg/ml): - | in vitro activity score, IgR-37 (IgR37 cells melanoma; 10 μg/ml): + | MAX T/C (P 388 tumour cells; 10 mg/kg): 120% | in vitro activity score, A 204 ([2]; 0.01 μg/ml): - | in vitro activity score, A 204 ([2]; 0.1 μg/ml): - | in vitro activity score, A 204 ([2]; 1.0 μg/ml): - | in vitro activity score, A 204 ([2]; 10 μg/ml): + | IC50 (L1210 cells; [3]): 3.7 µg/mL (≈ 9.41 µM) | in vitro activity score, MCF-7 (MCF7 breast cancer cells; 0.01 μg/ml): - | in vitro activity score, MCF-7 (MCF7 breast cancer cells; 0.1 μg/ml): - | in vitro activity score, MCF-7 (MCF7 breast cancer cells; 1.0 μg/ml): - | in vitro activity score, MCF-7 (MCF7 breast cancer cells; 10 μg/ml): + | LD50 (in vivo): 30 to 100 mg/kg | % T/C (L1210; 80 mg/kg IP single dose): tox. | response vs control in vivo at 30 mg/kg (L1210; Mus musculus, L1210, 30 mg/kg IP single dose, read-out: % T/C): 100% | response vs control in vivo at 40 mg/kg (L1210; Mus musculus, L1210, 40 mg/kg IP single dose, read-out: % T/C): 113% | response vs control in vivo at 60 mg/kg (L1210; Mus musculus, L1210, 60 mg/kg IP single dose, read-out: % T/C): 100%

CC(=O)OC/C=C/c1c(COC(C)=O)c2c(n1C)C(=O)C=C(N1CC1)C2=O [E.O. 4, 3-Acetoxymethyl-5-aziridino-1-methyl-2-[1H-indole-4,7-dione]prop-β-en-α-yl acetate]
in vitro activity score, IgR-37 (IgR37 cells melanoma; 0.01 μg/ml): - | in vitro activity score, IgR-37 (IgR37 cells melanoma; 0.1 μg/ml): - | in vitro activity score, IgR-37 (IgR37 cells melanoma; 1.0 μg/ml): + | in vitro activity score, IgR-37 (IgR37 cells melanoma; 10 μg/ml): + | MAX T/C (P 388 tumour cells; 10 mg/kg): 135% | T/C at the optimal dose (P 388 tumour cells; optimal dose): ~130% | in vitro activity score, A 204 ([2]; 0.01 μg/ml): - | in vitro activity score, A 204 ([2]; 0.1 μg/ml): - | in vitro activity score, A 204 ([2]; 1.0 μg/ml): + | in vitro activity score, A 204 ([2]; 10 μg/ml): + | IC50 (L1210 cells): < 1 µg/mL | in vitro activity score, MCF-7 (MCF7 breast cancer cells; 0.01 μg/ml): - | in vitro activity score, MCF-7 (MCF7 breast cancer cells; 0.1 μg/ml): - | in vitro activity score, MCF-7 (MCF7 breast cancer cells; 10 μg/ml): + | activity against the lung cell line (lung-NSCLC tumour line; 0.01 μg/ml): active | activity at 0.001 µg/mL (lung-NSCLC tumour line; [6]): 64% | activity at 0.01 µg/mL (lung-NSCLC tumour line; [6]): 8% | activity at 0.1 µg/mL (lung-NSCLC tumour line; [6]): 0% | % T/C (L1210; 15 mg/kg IP single dose): tox. | % T/C (L1210; 25, 30 mg/kg IP single dose): tox. | response vs control in vivo at 20 mg/kg (L1210; Mus musculus, L1210, ip, read-out: % T/C): 100%

Cn1c(/C=C/CO)c(CO)c2c1C(=O)C=C(N1CC1)C2=O [E.O. 9, 5-Aziridino-3-hydroxymethyl-1-methyl-2-[1H-indole-4,7-dione]prop-β-en-α-ol]
in vitro activity score, IgR-37 (IgR37 cells melanoma; 0.01 μg/ml): + | in vitro activity score, IgR-37 (IgR37 cells melanoma; 0.1 μg/ml): + | in vitro activity score, IgR-37 (IgR37 cells melanoma; 1.0 μg/ml): + | in vitro activity score, IgR-37 (IgR37 cells melanoma; 10 μg/ml): + | MAX T/C (P 388 tumour cells; 1.5 mg/kg): 106% | half-wave potential E1.2, wave I ([1]; pH = 8 vs Ag/AgCl): -370 mV | half-wave potential E1.2, wave II ([1]; pH = 8 vs Ag/AgCl): -785 mV | in vitro activity score, A 204 ([2]; 0.01 μg/ml): - | in vitro activity score, A 204 ([2]; 0.1 μg/ml): + | in vitro activity score, A 204 ([2]; 1.0 μg/ml): + | in vitro activity score, A 204 ([2]; 10 μg/ml): + | IC50 (L1210 cells; [3]): 0.8 µg/mL (≈ 2.77 µM) | in vitro activity score, MCF-7 (MCF7 breast cancer cells; 0.01 μg/ml): - | in vitro activity score, MCF-7 (MCF7 breast cancer cells; 0.1 μg/ml): + | in vitro activity score, MCF-7 (MCF7 breast cancer cells; 1.0 μg/ml): + | in vitro activity score, MCF-7 (MCF7 breast cancer cells; 10 μg/ml): + | activity against the lung cell line (lung-NSCLC tumour line; 0.01 μg/ml): active | activity at 0.01 µg/mL (lung-NSCLC tumour line; [4]): 0% | activity at 0.1 µg/mL (lung-NSCLC tumour line; [5]): 0% | activity at 1 µg/mL (lung-NSCLC tumour line; [6]): 0% | LD50 (in vivo): 10 mg/kg | % T/C (L1210; 6, 8, 10 mg/kg IP single dose): tox. | response vs control in vivo at 2 mg/kg (L1210; Mus musculus, L1210, 2 mg/kg IP single dose, read-out: % T/C): 144% | response vs control in vivo at 4 mg/kg (L1210; Mus musculus, L1210, 4 mg/kg IP single dose, read-out: % T/C): 100%
